# No end group written: not given here.
# What was measured:
# Assay type in all cases: physicochemical
# [1] = Release testing and long-term (frozen) stability of aqueous peptide mixtures (143 µg/mL per peptide in PBS 10 mM pH 7.0), UPLC-MS
# [2] = Filter experiment: peptide adsorption to the 0.22 µm sterilization filter, UPLC-MS
# [3] = In-use stability of thawed aqueous peptide mixtures at room temperature, UPLC-MS; details: 4 h room temperature
# [4] = Freeze–thaw stability of model peptides, UPLC-MS; details: 150 µg/mL in PBS, two freeze–thaw cycles, fivefold on three consecutive days
# Procedure: A UPLC-MS system was used for the development and validation of the stability-indicating analytical method. The apparatus, column, flow rate, mobile phase A, mobile phase B, mass acquisition, and sample run time were: UPLC UltiMate 3000 RSLC System (Thermo Fisher Scientific, Waltham, MA, USA) coupled to a Q Exactive Orbitrap Mass Spectrometers (Thermo Fisher Scientific, Waltham, MA, USA); Acquity UPLC Peptide CSH C18, 130 Å, 1.7 µm, 2.1 mm × 150 mm (Waters Corporation, Milford, MA, USA); 0.40 mL/min; 0.013% ammonium formate and 0.1% formic acid dissolved in ultrapure water (pH 2.8); 0.013% ammonium formate and 0.1% formic acid dissolved in a mixture of 0.495:0.495:0.10 methanol, acetonitrile, and ultrapure water; masses scanned from 300.0–1900.0 m/z; 15 min; respectively. The mobile phase gradient started at t0 min with 98% of mobile phase A that was gradually adjusted to 40% at t9 min. At t9.1 min, mobile phase A was set at 2% till t11.1 min. At t11.2 min, mobile phase A was set at 98% until the end of the sample run time.
# For each peptide, six stock concentrations in the range of 5–225 µg/mL dissolved in PBS were made. The linear relationship of the calibration curves was investigated by regression analysis. The linear correlation coefficient (R^2), goodness of fit, and lack of fit were analyzed. For the accuracy and precision tests, samples of 50 µg/mL, 150 µg/mL, and 225 µg/mL were analyzed in triplicate on three consecutive days to determine the closeness of agreement of the measurements compared to the analyzed concentrations (accuracy % bias) and repeated experiments (relative standard deviations (RSD)). For the sensitivity test, peptide samples at 5 µg/mL were analyzed in triplicate on three consecutive days and the signal-to-noise (S/N) ratio was calculated from representative chromatograms. For the freeze–thaw experiment, samples at 150 µg/mL for each of the three peptides were prepared and analyzed in fivefold on three consecutive days after each sample was subjected to two freeze–thaw cycles before the analysis was initiated.
# [5] = in FRM001-M1, t = 0 w, % area of peptide peak of sum of the six peptide peaks
sequence,measurement,setting,value
"CKECGRPLDVVHTLLHIRAFMLIKNPMNVK [FRM001P12, neoantigen peptide, in FRM001-M2]",Peptide peak ratio,"[1]; in FRM001-M2, 2 w −25 °C",22.0%
same,Peptide peak ratio,"[1]; in FRM001-M2, 4 w −25 °C",19.5%
same,Peptide peak ratio,"[1]; in FRM001-M2, 8 w −25 °C",19.6%
same,Peptide peak ratio,"[1]; in FRM001-M2, 8 w −80 °C",20.5%
same,Peptide peak ratio,"[1]; in FRM001-M2, 12 w −25 °C",18.1%
same,Peptide peak ratio,"[1]; in FRM001-M2, 12 w −80 °C",20.0%
same,Peptide peak ratio,"[1]; in FRM001-M2, 16 w −25 °C",17.9%
same,Peptide peak ratio,"[1]; in FRM001-M2, 16 w −80 °C",19.5%
same,Peptide peak ratio,"[1]; in FRM001-M2, 32 w −25 °C",20.3%
same,Peptide peak ratio,"[1]; in FRM001-M2, 32 w −80 °C",22.6%
same,Peptide peak ratio,"[1]; in FRM001-M2, t = 0 w",24.6%
same,Peak ratio,"[2]; in FRM001M2, unfiltered sample",27.7%
same,Peptide peak ratio,"[3]; in FRM001-M2, 2 w −25 °C",23.0%
same,Peptide peak ratio,"[3]; in FRM001-M2, 4 w −25 °C",20.5%
same,Peptide peak ratio,"[3]; in FRM001-M2, 8 w −25 °C",21.0%
same,Peptide peak ratio,"[3]; in FRM001-M2, 8 w −80 °C",21.0%
same,Peptide peak ratio,"[3]; in FRM001-M2, 12 w −25 °C",19.7%
same,Peptide peak ratio,"[3]; in FRM001-M2, 12 w −80 °C",20.6%
same,Peptide peak ratio,"[3]; in FRM001-M2, 16 w −25 °C",18.9%
same,Peptide peak ratio,"[3]; in FRM001-M2, 16 w −80 °C",20.0%
same,Peptide peak ratio,"[3]; in FRM001-M2, 32 w −25 °C",22.7%
same,Peptide peak ratio,"[3]; in FRM001-M2, 32 w −80 °C",24.2%
"RHSPNGNGPRSQHHSLITTNTDPSCSCVT [FRM001P14, neoantigen peptide, in FRM001-M1]",Peptide peak ratio,"[1]; in FRM001-M1, 2 w −25 °C",11.2%
same,Peptide peak ratio,"[1]; in FRM001-M1, 4 w −25 °C",10.5%
same,Peptide peak ratio,"[1]; in FRM001-M1, 8 w −25 °C",10.9%
same,Peptide peak ratio,"[1]; in FRM001-M1, 8 w −80 °C",10.8%
same,Peptide peak ratio,"[1]; in FRM001-M1, 12 w −25 °C",11.9%
same,Peptide peak ratio,"[1]; in FRM001-M1, 16 w −25 °C",10.1%
same,Peptide peak ratio,"[1]; in FRM001-M1, 16 w −80 °C",10.7%
same,Peptide peak ratio,"[1]; in FRM001-M1, 32 w −25 °C",7.5%
same,Peptide peak ratio,"[1]; in FRM001-M1, 32 w −80 °C",11.8%
same,Peptide peak ratio,[1]; [5],10.8%
same,Peak ratio,"[2]; in FRM001M1, filtered (0.22 µm Millex GV)",10.8%
same,Peak ratio,"[2]; in FRM001M1, unfiltered sample",10.9%
same,Peptide peak ratio,"[3]; in FRM001-M1, 2 w −25 °C",11.3%
same,Peptide peak ratio,"[3]; in FRM001-M1, 4 w −25 °C",10.5%
same,Peptide peak ratio,"[3]; in FRM001-M1, 8 w −25 °C",10.8%
same,Peptide peak ratio,"[3]; in FRM001-M1, 8 w −80 °C",10.7%
same,Peptide peak ratio,"[3]; in FRM001-M1, 12 w −25 °C",11.2%
same,Peptide peak ratio,"[3]; in FRM001-M1, 12 w −80 °C",11.2%
same,Peptide peak ratio,"[3]; in FRM001-M1, 16 w −25 °C",10.5%
same,Peptide peak ratio,"[3]; in FRM001-M1, 16 w −80 °C",10.6%
same,Peptide peak ratio,"[3]; in FRM001-M1, 32 w −25 °C",10.9%
same,Peptide peak ratio,"[3]; in FRM001-M1, 32 w −80 °C",11.5%
SVTNTSLAHELWKVPLHLKTSLLRPAHLRD [FRM001P02],"Freeze–thaw stability, average bias",[4],8%
"GCHLFSKRKCSQNKQSKRGKSRFYLSWRPL [FRM001P01, neoantigen peptide of lung tumor LUN021, in FRM001-M1 and FRM001-M4]",Peptide peak ratio,"[1]; in FRM001-M1, 2 w −25 °C",15.0%
same,Peptide peak ratio,"[1]; in FRM001-M1, 4 w −25 °C",14.6%
same,Peptide peak ratio,"[1]; in FRM001-M1, 8 w −25 °C",15.2%
same,Peptide peak ratio,"[1]; in FRM001-M1, 8 w −80 °C",15.0%
same,Peptide peak ratio,"[1]; in FRM001-M1, 12 w −25 °C",15.9%
same,Peptide peak ratio,"[1]; in FRM001-M1, 12 w −80 °C",15.5%
same,Peptide peak ratio,"[1]; in FRM001-M1, 16 w −25 °C",15.4%
same,Peptide peak ratio,"[1]; in FRM001-M1, 16 w −80 °C",15.3%
same,Peptide peak ratio,"[1]; in FRM001-M1, 32 w −25 °C",13.4%
same,Peptide peak ratio,"[1]; in FRM001-M1, 32 w −80 °C",14.2%
same,Peptide peak ratio,[1]; [5],15.0%
same,Peptide peak ratio,"[1]; in FRM001-M4, 2 w −25 °C",14.5%
same,Peptide peak ratio,"[1]; in FRM001-M4, 4 w −25 °C",15.4%
same,Peptide peak ratio,"[1]; in FRM001-M4, 8 w −25 °C",15.1%
same,Peptide peak ratio,"[1]; in FRM001-M4, 8 w −80 °C",15.2%
same,Peptide peak ratio,"[1]; in FRM001-M4, 12 w −25 °C",15.1%
same,Peptide peak ratio,"[1]; in FRM001-M4, 12 w −80 °C",14.8%
same,Peptide peak ratio,"[1]; in FRM001-M4, 16 w −25 °C",12.5%
same,Peptide peak ratio,"[1]; in FRM001-M4, 16 w −80 °C",12.5%
same,Peptide peak ratio,"[1]; in FRM001-M4, 32 w −25 °C",12.9%
same,Peptide peak ratio,"[1]; in FRM001-M4, 32 w −80 °C",14.7%
same,Peptide peak ratio,"[1]; in FRM001-M4, t = 0 w",14.4%
same,Peak ratio,"[2]; in FRM001M1, unfiltered sample",14.8%
same,Peak ratio,"[2]; in FRM001M4, unfiltered sample",14.9%
same,Peptide peak ratio,"[3]; in FRM001-M1, 2 w −25 °C",15.2%
same,Peptide peak ratio,"[3]; in FRM001-M1, 4 w −25 °C",14.8%
same,Peptide peak ratio,"[3]; in FRM001-M1, 8 w −25 °C",15.3%
same,Peptide peak ratio,"[3]; in FRM001-M1, 8 w −80 °C",15.2%
same,Peptide peak ratio,"[3]; in FRM001-M1, 12 w −25 °C",15.3%
same,Peptide peak ratio,"[3]; in FRM001-M1, 12 w −80 °C",15.3%
same,Peptide peak ratio,"[3]; in FRM001-M1, 16 w −25 °C",15.5%
same,Peptide peak ratio,"[3]; in FRM001-M1, 16 w −80 °C",15.6%
same,Peptide peak ratio,"[3]; in FRM001-M1, 32 w −25 °C",14.1%
same,Peptide peak ratio,"[3]; in FRM001-M1, 32 w −80 °C",14.1%
same,Peptide peak ratio,"[3]; in FRM001-M4, 2 w −25 °C",14.7%
same,Peptide peak ratio,"[3]; in FRM001-M4, 4 w −25 °C",15.5%
same,Peptide peak ratio,"[3]; in FRM001-M4, 8 w −25 °C",15.3%
same,Peptide peak ratio,"[3]; in FRM001-M4, 8 w −80 °C",15.5%
same,Peptide peak ratio,"[3]; in FRM001-M4, 12 w −25 °C",14.8%
same,Peptide peak ratio,"[3]; in FRM001-M4, 12 w −80 °C",15.1%
same,Peptide peak ratio,"[3]; in FRM001-M4, 16 w −25 °C",12.4%
same,Peptide peak ratio,"[3]; in FRM001-M4, 16 w −80 °C",12.4%
same,Peptide peak ratio,"[3]; in FRM001-M4, 32 w −25 °C",13.1%
same,Peptide peak ratio,"[3]; in FRM001-M4, 32 w −80 °C",14.9%

# — article PMC9322189, “Development of a Personalized Tumor Neoantigen Based Vaccine Formulation (FRAME-001) for Use in a Phase II Trial for the Treatment of Advanced Non-Small Cell Lung Cancer” (Pharmaceutics, 2022)
